Reference: patent US9428665B2, “Photopolymerizable inkjet ink, ink cartridge, and inkjet recording device” (Ricoh Company, Ltd., priority 2011, dated 2016)
Like-named read-outs stand apart in the source and are kept apart here.

Assays:
female mice = test: Skin sensitization test based on the LLNA (Local Lymph Node Assay), SI value by BrdU intake; assay type: in vivo; settings: test substance 50.0 w/v % in acetone:olive oil 4:1, 25 μL/auricle once/day × 3 days, SI less than 3 = negative for skin sensitization
Excerpt: Here, the photopolymerizable monomer negative for skin sensitization refers to at least one of the following compounds (1) to (3): • (1) a compound having a Stimulation Index (SI value) of less than 3, where the Stimulation Index indicates the extent of sensitization as measured by a skin sensitization test based on the LLNA (Local Lymph Node Assay); • (2) a compound evaluated as “negative for skin sensitization” or “no skin sensitization” in its MSDS (Material Safety Data Sheet); and • (3) a compound evaluated as “negative for skin sensitization” or “without skin sensitization” in literature [e.g., Contact Dermatitis 8 223-235 (1982)]. […]
According to the skin sensitization test based on the LLNA (Local Lymph Node Assay), the SI value was measured in the below described manner. […]
Before treated with the test substances, the positive control or the vehicle control, female mice were acclimated for 8 days including 6-day quarantine. […] Based on the body weights measured 2 days before the initiation of sensitization, they were categorized into 2 groups (4 mice/group) by the body weight stratified random sampling method so that the body weight of each individual was within ±20% of the average body weight of all the individuals. […]

[1] = cited from earlier work
[2] = in vivo; cited from earlier work
[3] = test method: the maximization method; cited from earlier work
[4] = test method: OECD test guideline 406

Compound: CCc1cc(CC)c2sc3ccccc3c(=O)c2c1 [2,4-Diethylthioxanthone]
- SI value (Stimulation Index) (female mice): 1.4

Compound: CCC(Cc1ccccc1)(C(=O)c1ccc(N2CCOCC2)cc1)N(C)C (centres unmarked) [Example C3, 2-Benzyl-2-dimethylamino-1-(4-morpholinophenyl)butanone-1]
- skin sensitization evaluated in the MSDS [1, 4]: none

Compound: C=CC(=O)NCCO [HEAA, Hydroxyethylacryl amide]
- skin sensitization evaluation (MSDS or literature) [2]: none

Compound: CSc1ccc(C(=O)C(C)(C)N2CCOCC2)cc1 [Example C2, 2-Methyl-1-[4-(methylthio)phenyl]-2-morpholinopropan-1-one]
- skin sensitization evaluated in the MSDS [1, 4]: none

Compound: CCCCC(CC)COC(=O)c1ccc(N(C)C)cc1 (centres unmarked) [2-ethylhexyl p-dimethylaminobenzoate]
- skin sensitization evaluated in the MSDS [1, 4]: none

Compound: C=COCCOCCOCCOC=C [Example B1, Triethylene glycol divinyl ether]
- skin sensitization evaluated in the MSDS [1, 4]: negative

Compound: C=C(C)C(=O)OCCCCC [n-AMYL METHACRYLATE, n-Pentyl methacrylate]
- skin sensitization evaluated in the literature [3]: negative

Compound: C=C(C)C(=O)OCCCCCC [HEXYL METHACRYLATE, n-Hexyl methacrylate]
- skin sensitization evaluated in the literature [3]: negative

Compound: Caprolactone-modified dipentaerythritol hexaacrylate [DPCA-60]
- skin sensitization evaluated in the MSDS ([1]; in vivo): negative

Compound: CCC(Cc1ccc(C)cc1)(C(=O)c1ccc(N2CCOCC2)cc1)N(C)C (centres unmarked) [Example C1, 2-Dimethylamino-2-(4-methylbenzyl)-1-(4-morpholin-4-yl-phenyl) butan-1-one]
- skin sensitization evaluated in the MSDS [1, 4]: none

Compound: C=C(C)C(=O)OC(C)(C)C [LIGHT ESTER TB, t-Butyl methacrylate]
- skin sensitization evaluated in the literature [3]: negative
